Test results published in the supplement of paper PMC10011410.
± gives the standard deviation of the averaged measurements.

System: U-2 OS
Test: cell painting activity score (Mahalanobis distance from DMSO wells); higher = stronger morphological phenotype
Settings: 10 µM; 24 h
Outline: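 In this cell painting assay, roughly 1,500 U-2 OS cells per well in 384-well plates were pin-tool treated at 37 °C for 24 h, typically at six 2-fold steps from 20 μM down to 625 nM. Cells were stained with MitoTracker, concanavalin A, phalloidin, wheat germ agglutinin, Hoechst and SYTO 14, imaged on an Opera Phenix, and analysed in CellProfiler with normalization to same-plate DMSO cells. Reported values are means of four replicate plates, with the activity score defined as the Mahalanobis distance from DMSO wells and cell count defined relative to DMSO wells.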

Row | Compound | cell painting activity score
1 | COC(=O)[C@]1(C)CC[C@]2(C)CC[C@]3(C)C4=CC=C5C(=CC(=O)C(O)=C5C)[C@]4(C)CC[C@@]3(C)[C@@H]2C1 | 33.5

Same assay, conditions: 20 µM; 24 h

Row | Compound | cell painting activity score
2 | O=C(Nc1nc(-c2ccccc2)ns1)c1cccs1 | 4.52
3 | Cc1cc2c(C(C)C)c(O)c(O)c(C=O)c2c(O)c1-c1c(C)cc2c(C(C)C)c(O)c(O)c(C=O)c2c1O | 17.8
4 | C=CC(=O)Nc1cc(Nc2nccc(-c3cn(C)c4ccccc34)n2)c(OC)cc1N(C)CCN(C)C | 17.8
5 | O=S1(=O)C=Cc2ccccc21 | 13.2
6 | CC(=O)c1c(O)c(C)c(O)c(Cc2c(O)c3c(c(C(=O)C=Cc4ccccc4)c2O)OC(C)(C)C=C3)c1O | 11.2
7 | CC1(C)CC[C@]2(C(=O)n3ccnc3)CC[C@]3(C)[C@H](C(=O)C=C4[C@@]5(C)C=C(C#N)C(=O)C(C)(C)[C@@H]5CC[C@]43C)[C@@H]2C1 | 26.6
8 | COC[C@H]1OC(=O)c2coc3c2[C@@]1(C)C1=C(C3=O)[C@@H]2CCC(=O)[C@@]2(C)C[C@H]1OC(C)=O | 11.2 ± 0.66
9 | c1ccc(Nc2nc(-c3ccccc3)ns2)cc1 | 11.4
10 | C=CC(=O)Nc1cccc(Oc2nc(Nc3ccc(N4CCN(C)CC4)cc3OC)ncc2Cl)c1 | 14.9
11 | Cn1nnnc1SC1=CS(=O)(=O)c2ccccc21 | 21.5
12 | CCC(=O)N1CCN(c2ccc(-n3c(=O)ccc4cnc5ccc(-c6cnc7ccccc7c6)cc5c43)cc2C(F)(F)F)CC1 | 14.2
13 | O=C1CC(Nc2ccccc2)C(=O)N1Cc1ccccc1 (stereo not drawn) | 3.59
14 | C[C@@H]1C[C@H]2O[C@@H]2/C=C\C=C\C(=O)Cc2c(Cl)c(O)cc(O)c2C(=O)O1 | 15.3 ± 0.8
15 | C=CC(=O)Nc1cc2c(Nc3ccc(F)c(Cl)c3)ncnc2cc1OCCCN1CCOCC1 | 26.9
16 | O=C1/C(=C/c2ccc(O)c(Br)c2)CCC/C1=C\c1ccc(O)c(Br)c1 | 12.2
17 | CNC(=O)Nc1ccc2c(c1)CC[C@@]21OC(=O)N(CC(=O)N(Cc2ccc(F)cc2)[C@@H](C)C(F)(F)F)C1=O | 10.2
18 | O=C(O[C@@H]1Cc2c(O)cc(O)cc2O[C@@H]1c1cc(O)c(O)c(O)c1)c1cc(O)c(O)c(O)c1 | 10.4
19 | O=S1(=O)C=C(Sc2nn(-c3ccccc3)c(=S)s2)c2ccccc21 | 18.2
20 | C=CC(=O)Nc1ccc(CN2C(=O)N(c3cc(OC)cc(OC)c3)Cc3cnc(Nc4ccc(N5CCN(C)CC5)cc4)nc32)cc1 | 22.1
21 | CCCCCCCCCCCCCCCc1cccc(O)c1C(=O)O | 3.58
22 | Cl.Cl.O=C(O)Cn1nnc(-c2ccc(CN(CCCCOc3ccc(CN4CCCC4)cc3)CCc3ccccc3)cc2)n1 | 11.1
23 | COc1cc2ncnc(Nc3ccc(F)c(Cl)c3)c2cc1NC(=O)/C=C/CN1CCCCC1 | 22.1
24 | Cc1cc(-c2ccccc2)cc(C(=O)NNS(=O)(=O)c2ccccc2)c1F | 8.87
25 | Cn1c(=O)n(-c2ccc(C(C)(C)C#N)cc2)c2c3cc(-c4cnc5ccccc5c4)ccc3ncc21 | 12.8
26 | CCCCCC[C@H]1C(=O)O[C@H](C)[C@H](NC(=O)c2cccc(NC=O)c2O)C(=O)O[C@@H](C)[C@@H]1OC(=O)CC(C)C | 12.2
27 | COC(=O)[C@]1(C)CC[C@]2(C)CC[C@]3(C)C4=CC=C5C(=CC(=O)C(O)=C5C)[C@]4(C)CC[C@@]3(C)[C@@H]2C1 | 27.7

Same assay, conditions: 40 µM; 24 h

Row | Compound | cell painting activity score
28 | Cc1cc2c(C(C)C)c(O)c(O)c(C=O)c2c(O)c1-c1c(C)cc2c(C(C)C)c(O)c(O)c(C=O)c2c1O | 22.1
29 | CC(=O)c1c(O)c(C)c(O)c(Cc2c(O)c3c(c(C(=O)C=Cc4ccccc4)c2O)OC(C)(C)C=C3)c1O | 13.1
30 | O=C(O[C@@H]1Cc2c(O)cc(O)cc2O[C@@H]1c1cc(O)c(O)c(O)c1)c1cc(O)c(O)c(O)c1 | 4.51
31 | CCCCCCCCCCCCCCCc1cccc(O)c1C(=O)O | 12.9
32 | Cl.Cl.O=C(O)Cn1nnc(-c2ccc(CN(CCCCOc3ccc(CN4CCCC4)cc3)CCc3ccccc3)cc2)n1 | 11.5

Same assay, conditions: 80 µM; 24 h

Row | Compound | cell painting activity score
33 | Cc1cc2c(C(C)C)c(O)c(O)c(C=O)c2c(O)c1-c1c(C)cc2c(C(C)C)c(O)c(O)c(C=O)c2c1O | 24.1
34 | CC(=O)c1c(O)c(C)c(O)c(Cc2c(O)c3c(c(C(=O)C=Cc4ccccc4)c2O)OC(C)(C)C=C3)c1O | 12.8
35 | O=C(O[C@@H]1Cc2c(O)cc(O)cc2O[C@@H]1c1cc(O)c(O)c(O)c1)c1cc(O)c(O)c(O)c1 | 14.8
36 | CCCCCCCCCCCCCCCc1cccc(O)c1C(=O)O | 21
37 | Cl.Cl.O=C(O)Cn1nnc(-c2ccc(CN(CCCCOc3ccc(CN4CCCC4)cc3)CCc3ccccc3)cc2)n1 | 32

System: U-2 OS
Test: cell viability (CellTiter-Glo) relative to DMSO (% of control); higher = more viable
Settings: 5 µM; 24 h
Protocol: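 Cell viability of U-2 OS cells by CellTiter-Glo after 24 h compound treatment at 5, 10 and 20 uM (some at 40 and 80 uM), measured in parallel with the glutathione assay, as percent of DMSO control. Five technical replicate plates, averaged.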

Row | Compound | cell viability
38 | O=C(Nc1nc(-c2ccccc2)ns1)c1cccs1 | 95.9 ± 3.4
39 | Cc1cc2c(C(C)C)c(O)c(O)c(C=O)c2c(O)c1-c1c(C)cc2c(C(C)C)c(O)c(O)c(C=O)c2c1O | 96.4 ± 1.8
40 | C=CC(=O)Nc1cc(Nc2nccc(-c3cn(C)c4ccccc34)n2)c(OC)cc1N(C)CCN(C)C | 75.6 ± 3.2
41 | O=S1(=O)C=Cc2ccccc21 | 102 ± 5
42 | CC(=O)c1c(O)c(C)c(O)c(Cc2c(O)c3c(c(C(=O)C=Cc4ccccc4)c2O)OC(C)(C)C=C3)c1O | 98.4 ± 1.9
43 | CC1(C)CC[C@]2(C(=O)n3ccnc3)CC[C@]3(C)[C@H](C(=O)C=C4[C@@]5(C)C=C(C#N)C(=O)C(C)(C)[C@@H]5CC[C@]43C)[C@@H]2C1 | 43.9 ± 1.6
